Converted amounts (≈) assume the structure as drawn. Each block holds one molecule with its values, some of them ahead of it.
How the values were obtained:
[1] = Inhibition of GST-tagged DLK (1 to 520 residues)(unknown origin) using MKK4 as substrate preincubated for 60 mins followed by substrate/ATP addition measured after 30 mins by HTRF assay; set-up: species or system Homo sapiens
[2] = Intrinsic clearance in mouse liver microsomes; format: ADME, Microsome; conditions: read-out: CLH
[3] = Ratio of unbound drug concentration in brain to plasma of mouse at 5 mg/kg; format: ADME, organism-based; conditions: brain and plasma, read-out: K(p,uu,brain)
[4] = Intrinsic clearance in human liver microsomes; format: ADME, Microsome; conditions: read-out: CLH
[5] = Efflux ratio in MDCK-MDR1 cells; format: ADME, cell-based, Canis lupus familiaris; conditions: dog
CYP3A4 = CYP3A4 (Homo sapiens, UniProt P08684); test: Time dependent inhibition of CYP3A4 (unknown origin) at 30 uM incubated for 30 mins relative to control; format: ADME; conditions: read-out: TDI
Chain of CYP3A4 (P08684 whole entry): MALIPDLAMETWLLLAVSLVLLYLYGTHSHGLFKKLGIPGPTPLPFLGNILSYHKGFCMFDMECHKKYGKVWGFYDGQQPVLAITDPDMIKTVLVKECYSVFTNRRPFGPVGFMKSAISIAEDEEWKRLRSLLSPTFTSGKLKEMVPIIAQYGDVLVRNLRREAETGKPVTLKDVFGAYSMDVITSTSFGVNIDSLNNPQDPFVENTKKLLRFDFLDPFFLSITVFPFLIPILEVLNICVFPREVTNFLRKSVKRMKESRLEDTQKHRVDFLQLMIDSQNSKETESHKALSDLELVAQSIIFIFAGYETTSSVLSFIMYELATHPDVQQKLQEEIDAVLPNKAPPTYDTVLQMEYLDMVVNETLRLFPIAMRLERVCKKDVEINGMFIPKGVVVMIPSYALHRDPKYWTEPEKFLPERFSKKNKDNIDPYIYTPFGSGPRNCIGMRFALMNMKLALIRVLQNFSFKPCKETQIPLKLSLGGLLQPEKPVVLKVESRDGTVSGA

[6] = Inhibition of human DLK transfected in HEK293-T-REx cells assessed as decrease in JNK phosphorylation incubated for 5 hrs by HTRF assay; format: cell-based
[7] = Apparent permeability across apical to basal side in MDCK-MDR1 cells; format: ADME, cell-based, Canis lupus familiaris; conditions: dog
[8] = Half life in mouse at 5 mg/kg, po; format: ADME, organism-based; conditions: in vivo
[9] = Kinetic solubility of compound at pH 6.8; format: physicochemical; conditions: buffer, read-out: Kinetic_solubility
[10] = Clearance in mouse at 5 mg/kg, po; format: ADME, organism-based; conditions: in vivo
[11] = Oral bioavailability in mouse at 5 mg/kg; format: ADME, organism-based; conditions: in vivo
[12] = Intrinsic clearance in dog liver microsomes; format: ADME, Canis lupus familiaris, Microsome; conditions: read-out: CLH
[13] = target: Voltage-gated inwardly rectifying potassium channel KCNH2 (Homo sapiens, UniProt Q12809); test: Inhibition of hERG by patch-clamp method; format: toxicity
Chain of Voltage-gated inwardly rectifying potassium channel KCNH2 (Q12809 whole entry): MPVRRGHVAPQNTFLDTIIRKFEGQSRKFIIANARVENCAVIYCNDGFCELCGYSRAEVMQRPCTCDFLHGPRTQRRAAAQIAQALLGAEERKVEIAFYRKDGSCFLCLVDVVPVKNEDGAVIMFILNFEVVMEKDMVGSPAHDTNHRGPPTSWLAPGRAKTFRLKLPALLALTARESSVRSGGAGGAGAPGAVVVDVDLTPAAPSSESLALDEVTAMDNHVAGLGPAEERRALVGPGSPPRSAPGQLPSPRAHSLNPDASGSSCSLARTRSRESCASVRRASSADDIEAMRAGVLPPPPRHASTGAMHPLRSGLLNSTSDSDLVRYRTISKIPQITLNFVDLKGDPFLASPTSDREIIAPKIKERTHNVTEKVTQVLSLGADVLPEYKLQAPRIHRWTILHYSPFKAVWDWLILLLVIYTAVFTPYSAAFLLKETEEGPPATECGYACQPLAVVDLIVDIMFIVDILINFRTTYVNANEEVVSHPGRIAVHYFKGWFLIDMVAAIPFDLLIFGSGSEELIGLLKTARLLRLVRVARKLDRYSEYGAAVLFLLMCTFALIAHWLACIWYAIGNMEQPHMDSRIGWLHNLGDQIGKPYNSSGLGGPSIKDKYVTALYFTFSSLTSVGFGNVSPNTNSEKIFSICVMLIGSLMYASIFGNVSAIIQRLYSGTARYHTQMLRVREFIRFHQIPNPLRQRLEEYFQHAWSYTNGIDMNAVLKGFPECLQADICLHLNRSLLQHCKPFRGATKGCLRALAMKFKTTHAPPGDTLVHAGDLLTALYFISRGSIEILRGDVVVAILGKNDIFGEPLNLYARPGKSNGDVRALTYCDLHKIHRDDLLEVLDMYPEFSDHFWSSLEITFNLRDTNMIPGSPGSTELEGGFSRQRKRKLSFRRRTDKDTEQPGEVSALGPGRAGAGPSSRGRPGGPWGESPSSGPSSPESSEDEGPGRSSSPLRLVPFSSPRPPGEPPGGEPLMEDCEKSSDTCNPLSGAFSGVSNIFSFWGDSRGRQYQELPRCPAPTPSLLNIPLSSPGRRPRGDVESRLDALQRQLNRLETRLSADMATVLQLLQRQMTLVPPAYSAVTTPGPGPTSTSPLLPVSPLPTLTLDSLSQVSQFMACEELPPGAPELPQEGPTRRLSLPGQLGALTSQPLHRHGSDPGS

[14] = Energy of neutralization, pKa of compound; format: physicochemical

microsomal CLint [2]: 17 µL/min/mg | Kp uu [3]: 0.31 | microsomal CLint [4]: 13 µL/min/mg | Ki [1]: 3.4 nM | IC50 [6]: 104 nM
SMILES: Nc1ncc(-c2nn(C3CC3)c3c(=O)n(C4CCOCC4)ccc23)cc1OC(F)(F)F

Ki [1]: 4.8 nM | IC50 [6]: 162 nM
SMILES: CN1CCC(c2ccc3c(-c4cnc(N)c(C(F)(F)F)c4)nc(C#N)n3c2)CC1

Ki [1]: 416 nM
SMILES: Nc1ncc(-c2ccc3ncsc3n2)cc1C(F)(F)F

inhibition at 0.5 h, 30 µM (CYP3A4): 78% | Ki [1]: 1.6 nM | IC50 [6]: 84 nM
SMILES: CCc1nc(-c2cnc(N)c(OC(F)(F)F)c2)c2ccc(C3CCOCC3)nn12

Ki [1]: 1 nM
SMILES: CCc1nc(-c2cnc(N)c(C(F)(F)F)c2)c2ccc(C3COC3)cn12

Ki [1]: 4.3 nM | pKa [14]: 8.1 | solubility kinetic [9]: 73 µM (≈ 27.4 µg/mL) | IC50 [6]: 90 nM
SMILES: CN1CCCC[C@H]1c1ccc2c(-c3cnc(N)c(C(F)(F)F)c3)ncn2c1
IC50 [13]: 1100 nM

microsomal CLint [2]: 9 µL/min/mg | microsomal CLint [4]: 27 µL/min/mg | efflux ratio [5]: 0.8 | solubility kinetic [9]: 1 µM (≈ 0.39 µg/mL) | Papp A→B [7]: 12.3 ×10⁻⁶ cm/s
SMILES: CCc1nc(-c2cnc(N)c(C(F)(F)F)c2)c2ccc(C3CCOCC3)cn12

microsomal CLint [2]: 21 µL/min/mg | Kp uu [3]: 0.22 | microsomal CLint [4]: 12 µL/min/mg | Ki [1]: 1.3 nM | IC50 [6]: 95 nM | microsomal CLint [12]: 21 µL/min/mg
SMILES: CCn1nc(-c2cnc(N)c(OC(F)(F)F)c2)c2ccn([C@H]3CCOC[C@H]3OC3CC3)c(=O)c21

Ki [1]: 0.7 nM | IC50 [6]: 22 nM
SMILES: CN1CCC(c2ccc3c(-c4cnc(N)c(C(F)(F)F)c4)nc([C@@H]4CCCO4)n3c2)CC1
IC50 [13]: 800 nM

Continued, molecule first:

SMILES: CC(C)c1n[nH]c2cnc(-c3cnc(N)c(C(F)(F)F)c3)cc12
Ki [1]: 79 nM

SMILES: CCn1nc(-c2cnc(N)c(OC(F)(F)F)c2)c2ccn(C3CCOCC3)c(=O)c21
microsomal CLint [2]: 16 µL/min/mg | Kp uu [3]: 0.43 | microsomal CLint [4]: 8.8 µL/min/mg | efflux ratio [5]: 1 | inhibition at 0.5 h, 30 µM (CYP3A4): 18% | Ki [1]: 2.8 nM | IC50 [6]: 110 nM | Papp A→B [7]: 7.6 ×10⁻⁶ cm/s

SMILES: CCc1nc(-c2cnc(N)c(OC(F)(F)F)c2)c2cc(C)c([C@H]3COCCN3C)cn12
inhibition at 0.5 h, 30 µM (CYP3A4): 70% | Ki [1]: 5.3 nM | IC50 [6]: 290 nM

SMILES: CCc1nc(-c2cnc(N)c(OC(F)F)c2)c2ccc([C@H]3COCCN3C)cn12
half-life [8]: 18 min | microsomal CLint [2]: 17 µL/min/mg | Kp uu [3]: 0.14 | microsomal CLint [4]: 8 µL/min/mg | efflux ratio [5]: 0.8 | solubility kinetic [9]: 284 µM (≈ 115 µg/mL) | CL/F [10]: 109 mL/min/kg | Papp A→B [7]: 30.1 ×10⁻⁶ cm/s | bioavailability [11]: 144%

SMILES: CCn1nc(-c2cnc(N)c(OC(F)(F)F)c2)c2ccn([C@H]3CCN(C)C[C@H]3OC(F)(F)F)c(=O)c21
microsomal CLint [2]: 66 µL/min/mg | microsomal CLint [4]: 41 µL/min/mg | Ki [1]: 1.1 nM | IC50 [6]: 130 nM | microsomal CLint [12]: 21 µL/min/mg

SMILES: Nc1ncc(-c2n[nH]c3cnccc23)cc1C(F)(F)F
Ki [1]: 149 nM

SMILES: CCn1nc(-c2cnc(N)c(OC(F)(F)F)c2)c2ccc([C@H]3COCCN3C)nc21
inhibition at 0.5 h, 30 µM (CYP3A4): 14% | Ki [1]: 2.4 nM | IC50 [6]: 94 nM

SMILES: CCn1nc(-c2cnc(N)c(OC(F)(F)F)c2)c2ccn([C@@H]3CCOC[C@@H]3OC)c(=O)c21
microsomal CLint [2]: 8.3 µL/min/mg | Kp uu [3]: 0.41 | microsomal CLint [4]: 14 µL/min/mg | Ki [1]: 1.9 nM | IC50 [6]: 94 nM | microsomal CLint [12]: 96 µL/min/mg

SMILES: CCc1nc(-c2cnc(N)c(OC(F)(F)F)c2)c2ccc([C@H]3COCC4(CC4)N3C)cn12
IC50 [13]: 30000 nM | inhibition at 0.5 h, 30 µM (CYP3A4): 67% | Ki [1]: 1.2 nM | IC50 [6]: 104 nM

SMILES: CCn1nc(-c2cnc(N)c(OC(F)F)c2)c2ccn([C@H]3CCOC[C@H]3OC(F)(F)F)c(=O)c21
Kp uu [3]: 0.5 | Ki [1]: 0.92 nM | IC50 [6]: 46 nM

SMILES: CCc1nc(-c2cnc(N)c(C(F)(F)F)c2)c2ccc(C3(F)CCN(C)CC3)cn12
IC50 [13]: 600 nM | Ki [1]: 0.6 nM | pKa [14]: 8.4 | IC50 [6]: 40 nM

SMILES: CCn1nc(-c2cnc(N)c(OC(F)(F)F)c2)c2ccn([C@@H]3CCOC3)c(=O)c21
microsomal CLint [2]: 33 µL/min/mg | microsomal CLint [4]: 22 µL/min/mg | Ki [1]: 7.7 nM | IC50 [6]: 120 nM

SMILES: CN1CCC(c2ccc3c(-c4cnc(N)c(C(F)(F)F)c4)ncn3c2)CC1
Ki [1]: 1.5 nM | solubility kinetic [9]: 80 µM (≈ 30 µg/mL) | IC50 [6]: 128 nM

SMILES: CCc1nc(-c2cnc(N)c(C(F)(F)F)c2)c2ccc(CN3CCOCC3)cn12
IC50 [13]: 2500 nM | Ki [1]: 4.6 nM | pKa [14]: 6.1 | IC50 [6]: 242 nM

SMILES: CCn1nc(-c2cnc(N)c(OC(F)(F)F)c2)c2ccn([C@H]3CC4(CC4)OC[C@H]3OC)c(=O)c21
microsomal CLint [2]: 9.7 µL/min/mg | microsomal CLint [4]: 3.2 µL/min/mg | Ki [1]: 2.2 nM | IC50 [6]: 200 nM | microsomal CLint [12]: 5.4 µL/min/mg

SMILES: Nc1ncc(-c2n[nH]c3ccsc23)cc1C(F)(F)F
Ki [1]: 72.4 nM

SMILES: Nc1ncc(-c2ncn3ccccc23)cc1C(F)(F)F
Ki [1]: 63 nM

SMILES: CCn1nc(-c2cnc(N)c(OC(F)(F)F)c2)c2ccn([C@@H]3CCCOCC3)c(=O)c21
microsomal CLint [2]: 25 µL/min/mg | Kp uu [3]: 0.29 | microsomal CLint [4]: 18 µL/min/mg | Ki [1]: 1.3 nM | IC50 [6]: 140 nM

Source: ChEMBL document CHEMBL6096672, “In Silico Enabled Discovery of KAI-11101, a Preclinical DLK Inhibitor for the Treatment of Neurodegenerative Disease and Neuronal Injury” (J Med Chem, 2025)
